Results reported in a melting point compilation (Tetko et al.; mined from patent text by program, amines drawn as free bases though some values may be those of a salt).

Row | Compound | melting point
1 | CCOC(=O)C(C#N)=C(Nc1ccc(N(CC)CC)cc1)SC | 100 °C
2 | Cc1cccc(C(C)C)c1NC(=O)Nc1c(C)nc(-c2ccccc2)nc1-c1ccccc1Cl | 266 to 267 °C
3 | CCCC[C@H](NS(=O)(=O)c1ccc(Br)cc1)C(=S)Nc1ccc(CCC(=O)O)cc1 | 174 to 176 °C
4 | CCCCCCCCC(=O)COS(=O)(=O)c1c(C)c(C)cc(C)c1C | 36 to 37.5 °C
5 | O=CNCC1c2ccccc2C=Cc2ccccc21 | 115 to 118 °C
6 | COc1cc(C(C)C)c2c(c1)S(=O)(=O)N(COC(=O)C(C)(C)C)C2=O | 178 to 179 °C
7 | CC(C)CCN1CNC(=O)C12CCNCC2 | 103 to 105 °C
8 | Cc1c(SCCCn2ccnc2)ccnc1CSc1ccncc1 | 117 to 119 °C
9 | CC1(C)COc2cc3c(cc21)C1(CO3)C(=O)Nc2ccccc21 (stereo unspecified) | 95 to 100 °C
10 | COc1cc(Cc2ccc(N)c(C#N)c2)cc(OC)c1 | 105 to 107 °C
11 | CC1(c2ccc(F)cc2)OC(C=Cc2ccc(C#N)cc2)=CC1=O (stereo unspecified) | 140 to 142 °C
12 | CC(C)Cc1cc(-c2cc(C=C3SC(=O)NC3=O)ccc2OC(F)(F)F)c2c(c1)C(C)(C)CO2 | 142 to 146 °C
13 | COc1ccc(C(=O)CC2CCCN(C)C2)cc1 (stereo unspecified) | 89 to 92 °C
14 | CCOC(=O)COc1ccccc1Cc1ccc2ccccc2c1O | 124 to 125 °C
15 | Cc1c(C(=O)C=Cc2ccccc2F)c2ccccc2n1CCN1CCOCC1 | 113 to 116 °C
16 | CCCCCCCCCCCCCCCCO[C@@H]1CCCO[C@H]1COP(=O)([O-])OCC[N+](C)(C)C (relative stereo) | 85 to 92 °C
17 | CCN(c1ccc(Cl)cc1[N+](=O)[O-])S(=O)(=O)c1ccc(Cl)cc1 | 122 to 123 °C
18 | CCOC(=O)C(C)(C)c1cn2nc(CCCCN3CCN(C(c4ccccc4)c4ccccc4)CC3)ccc2n1 | 105 to 106 °C
19 | CC(O)c1ccc(NS(C)(=O)=O)c(Sc2ccc(Cl)cc2Cl)c1 (stereo unspecified) | 91 to 94 °C
20 | O=C(O)C1=CCN2C=CC=CC2=C1 | 258 to 262 °C
21 | CC(=O)OCC(=O)NCc1nc(-c2csc(N=C(N)N)n2)cs1 | 182 to 183 °C
22 | COc1ccccc1C1=NC(C)(C)CO1 | 70 to 72 °C
23 | CCOC(=O)[C@@H](O)[C@@H]1OC(=O)c2cc(OC)c(OC)cc21 | 144 to 146 °C
24 | O=[N+]([O-])C1=C2N(CC3CCOC3)CCN2C2CCCC1O2 (stereo unspecified) | 115 to 117 °C

Row | Compound | melting point
25 | COc1ccc(C(=O)Nc2ccc(-c3ccc(C(C)=O)cc3C)cc2)cc1CCCN(C)C | 110 to 112 °C
26 | CCCCCCCCCCC(C(=O)CCCCO)P(=O)(c1ccccc1)c1ccccc1 (stereo unspecified) | 70 °C
27 | O=C(O)C(O)CCCCCc1ccc(Cl)cc1 (stereo unspecified) | 78 to 81 °C
28 | O=C1Nc2cc(CN3CC=C(c4ccc(Cl)cc4)CC3)cnc2N2CCC[C@@H]12 | 234 to 235 °C
29 | O=C(CCCCCCCCCCCCC(=O)Oc1cc(O)cc(O)c1)Oc1cc(O)cc(O)c1 | 140 to 145 °C
30 | COc1ccc(CCOS(N)(=O)=O)cc1OC | 106 to 108 °C
31 | Cc1cc(C)c(C(=O)c2ccccc2)c(OCC(O)CNC(C)C)c1C (stereo unspecified) | 121 to 123 °C
32 | CN(O)CCc1ccc2c(c1)C(=O)c1ccccc1CO2 | 101 to 102 °C
33 | CCOc1ccc(CCNC(=O)c2cnc3ccccc3c2)cc1S(N)(=O)=O | 222 to 231 °C
34 | COC(=O)c1cc(-c2ccc(OC)c(F)c2)nn(CC=Cc2ccc(Cl)cc2)c1=O | 131 to 132 °C
35 | CC(=O)OC1CC(C)(C)N(OC(C)=O)C(C)(C)C1 | 72 to 73 °C
36 | CCc1cc(C(=O)c2ccccc2Cl)c(-n2c(C)nnc2CNC(=O)c2ccc(Cl)c(Cl)c2)s1 | 151 to 152 °C
37 | Cn1c(=O)c(-c2c(Cl)cccc2Cl)cc2cnc(NCc3cccnc3)nc21 | 224 to 226 °C
38 | CCOC(=O)Oc1ccc(S(=O)(=O)N2c3cc(C(F)(F)F)ccc3-n3cccc3C2CC)cc1 (stereo unspecified) | 88 to 90 °C
39 | CCN(CC)C(=O)CCc1nc(-c2ccccc2)cc2ccccc12 | 58 °C
40 | O=C(O)c1c(-c2cccc3ccccc23)c2ccccc2n1Cc1cc2c(cc1Cl)OCO2 | 241 to 242 °C
41 | O=[N+]([O-])c1ccc(C=NNC2O[C@H](COCc3ccccc3)[C@@H](OCc3ccccc3)[C@H]2OCc2ccccc2)cc1 (stereo partly specified) | 93 °C
42 | CC(C)(C)C(=O)c1ccc(C(N)=O)cc1 | 138 to 140 °C
43 | CON(C)S(=O)(=O)c1ccccc1S(=O)(=O)NC(=O)n1nc(OCC(F)(F)F)n(C)c1=O | 183 °C
44 | O=C(O)[C@@H]1CC(=Cc2ccccc2)CN1C(=O)OCc1ccccc1 | 142 to 150 °C
45 | CCn1c(C)cc(=O)nc1S | 190 °C
46 | CCOC(=O)c1nc(OC)cc(OC)n1 | 54 to 55 °C
47 | CCc1cc2c(=O)n3cc(C(=O)O)ccc3nc2s1 | 255 to 257 °C
48 | FC(F)(F)Oc1cccc(C=Cc2nc(CNc3ccc(CCCCn4ccnn4)cc3)co2)c1 | 91 to 93 °C

Row | Compound | melting point
49 | CCCCCCCc1ccc(C(=O)CCCCC(=O)O)cc1[N+](=O)[O-] | 53 to 56 °C
50 | COc1cc(O)cc(OC)c1/C=C/S(=O)(=O)CS(=O)(=O)/C=C/c1c(OC)cc(O)cc1OC | 148 to 150 °C
51 | COC(=O)c1cc2cc(C[C@@H](C)NC[C@H](O)c3cccc(Cl)c3)ccc2n1CC1CC1 | 135 to 137 °C
52 | CC(=O)Nc1ccc(CCC2CSC(=O)NN2)cc1 (stereo unspecified) | 235 to 240 °C
53 | COc1ccc(-n2nc(Sc3ccc(C(C)(C)C)cc3)c(C)c(C#N)c2=O)cc1 | 186 to 188 °C
54 | CCc1nnc2c(N(CC)CC)nc3ccc(OC)cc3n12 | 135 to 138 °C
55 | CCSc1cc(C)nc(SCC)c1NC(=O)CSc1nc2cccc(S(C)(=O)=O)c2o1 | 159 to 162 °C
56 | CC(=O)N(C(C)=O)c1cc2c(cc1C)N(C(C)=O)c1ccc(N(C)C)cc1N2C(C)=O | 231 to 234 °C
57 | CC(C)(C#N)c1c(Cl)cc([N+](=O)[O-])cc1Cl | 80 °C
58 | CSc1cc(C)c(C(=O)N=C(N)N)cc1S(C)(=O)=O | 220 to 222 °C
59 | CCOC(=O)C1CC2CC(CP(=O)(O)O)CCC2CN1 (stereo unspecified) | 184 to 185 °C
60 | CCOC(=O)[C@H](C)Nc1c(C)cc(C)cc1C | 81 to 83 °C
61 | O=C(O)c1cn(CCCO)c(=O)c2ccccc12 | 205 °C
62 | Cc1ccc(N(CCN2CCC(C(=O)c3ccc(F)cc3)CC2)C(=O)c2cccc(N)c2)cc1 | 173 to 175 °C
63 | CCc1ccnc(C(=O)c2[nH]c3ccc(C(F)(F)F)cc3c2CC(=O)O)c1 | 204 °C
64 | Cc1n[nH]c2c1C[C@@H]1CN(C)CC[C@H]1C2 (relative stereo) | 160 to 162 °C
65 | c1ccc(CN[C@H]2CCCN[C@H]2c2ccc(-c3ccccc3)cc2)cc1 (relative stereo) | > 268 °C
66 | CC(Nc1cc(Br)ccc1OCc1ccccc1)c1ccc(C(=O)O)cc1 (stereo unspecified) | 186 to 187 °C
67 | CCOC(=O)CC(NC(=O)c1ccc(OC)cc1)C(=O)c1ccco1 (stereo unspecified) | 104 to 106 °C
68 | COc1ccc(OC(Cc2ccc(OCCNC(=O)c3ccc(-c4ccccn4)cc3)cc2)C(=O)O)cc1 (stereo unspecified) | 67.5 to 70 °C
69 | CCOC(=O)c1cccc([N+](=O)[O-])c1NC(=O)OC(C)(C)C | 104 to 105 °C
70 | CCOC(=O)CSc1nc(Cl)cc(Nc2c(C)cc(C)cc2C)n1 | 100 to 103 °C
71 | O=C(Nc1ccc(Oc2ccccc2)cc1)N1CCN(c2ncnc3cc([N+](=O)[O-])ccc23)CC1 | 146 to 148 °C
72 | CC(C)(Oc1cccc(C(=O)c2ccc(C(F)(F)F)cc2)c1)C(=O)O | 133 °C

Row | Compound | melting point
73 | CN1CCN(C(=O)c2ccc(-n3nc(-c4ccccc4O)nc3-c3ccccc3O)cc2)CC1 | 226 to 229 °C
74 | CC(=O)c1c(C)c(NC(=O)NC(C)(C)C)c(C)c2c1OCC2c1ccc(C(C)C)cc1 (stereo unspecified) | 207 to 208 °C
75 | Cc1[nH]c2ccccc2c1CCN1CCC(Oc2ccc(F)cc2)CC1 | 97 to 99 °C
76 | Cc1c(C(F)(F)F)n(C)c(=O)n(-c2cc(N)c(C#C[Si](C)(C)C)cc2F)c1=O | 192 to 198 °C
77 | COC(=O)C(O)CCN1C(=O)c2ccccc2C1=O (stereo unspecified) | 123 to 124 °C
78 | CC(C)(C)N1C(=O)OC2(CCN(Cc3ccccc3)CC2)C1(C)O (stereo unspecified) | 179 to 181 °C
79 | CC(=NC(=Nc1ccccc1)N1CCOCC1)NCCO | 132 to 134 °C
80 | C=C(c1ccc(I)cc1)C(O)(Cn1cncn1)c1ccccc1Cl (stereo unspecified) | 128 to 130 °C
81 | C#CCOc1ccc(C(=O)C=Cc2ccccc2)c(O)c1 | 115 to 117 °C
82 | c1ccc(-c2cccc(N(c3ccccc3)c3ccc4c(c3)Oc3ccc(N(c5ccccc5)c5cccc(-c6ccccc6)c5)cc3O4)c2)cc1 | 232 °C
83 | Nc1ccc(Oc2ccc(C3(c4ccc(Oc5ccc(N)cc5)cc4)CCC(c4ccccc4)CC3)cc2)cc1 | 90.7 to 92.2 °C
84 | O=c1c(N2CCNCC2)nccn1CCOc1cc(F)cc(F)c1 | 119 to 121 °C
85 | CC1(C(=O)N2C[C@H](Sc3ccc(OCC(F)(F)F)cc3C(F)(F)F)C[C@H]2C(=O)NC2(C#N)CC2)CC1 | 66 to 76 °C
86 | CCn1nc(-c2cccc(F)c2)c(C(C)=O)c(Nc2cccc3ncccc23)c1=O | 205 to 207 °C
87 | CN1C(=S)C(c2ccc(OC(F)(F)F)cc2)(c2cccc(-c3cccnc3F)c2)N=C1N (stereo unspecified) | 89 to 99 °C
88 | O=C(NC1CCCCC1)NS(=O)(=O)c1ccc2c(c1)CCN(C(=O)N1CCOCC1)CC2 | 190 to 191 °C
89 | COCCOc1cc(OC)c(C(CC(=O)Nc2cc(C(N)=O)ccc2C(C)(C)C)CC(C)C)cc1Cl (stereo unspecified) | 178 to 179 °C
90 | N#Cc1ccc(C=Cc2ccc(OCC(O)CO)cc2)cc1 (stereo unspecified) | 172 to 173 °C
91 | CN1C(=O)C=C(c2c[nH]c3ncccc23)C1=O | > 250 °C
92 | COC(=O)CCC(=O)Oc1c(C)c(C)c2c(c1C)SC(C)O2 (stereo unspecified) | 73 to 75 °C
93 | CC1(C)C2CC[C@]1(C)C(=O)C(C(=O)Nc1ccc([N+](=O)[O-])cc1)C2=O (stereo partly specified) | 168 to 170 °C
94 | CC(=S)c1ccc(Cc2ccc(C(C)=S)cc2)cc1 | 54 to 55 °C
95 | FC(F)(F)c1ccc(-c2ccc3ccn(Cc4ccccc4)c3c2)cc1 | 83 to 85 °C
96 | Cc1ccc([N+](=O)[O-])cc1Nc1nccc(-c2cccnn2)n1 | 275 to 277 °C
